ChEMBL document CHEMBL3091293, “The synthesis and biodistribution of [(11)C]metformin as a PET probe to study hepatobiliary transport mediated by the multi-drug and toxin extrusion transporter 1 (MATE1) in vivo” (Bioorg Med Chem, 2013)

Legend:
Format in all cases: ADME, organism-based
[1] = system: Liver; test: Biodistribution in liver of ddY mouse at 14.6 +/- 2.1 MBq, iv measured per gram of tissue at 14 mins by PET image analysis; details: in vivo
[2] = system: Spleen; test: Biodistribution in spleen of ddY mouse at 5.6 +/- 2.1 MBq, iv measured per gram of tissue at 90 mins by gamma-ray counting analysis; details: in vivo, 1.5 h
[3] = system: Pancreas; test: Biodistribution in pancreas of ddY mouse at 5.6 +/- 2.1 MBq, iv measured per gram of tissue at 15 mins by gamma-ray counting analysis; details: in vivo, 0.25 h
[4] = system: Mus musculus; test: Biodistribution in small intestine wall of ddY mouse at 5.6 +/- 2.1 MBq, iv measured per gram of tissue at 90 mins by gamma-ray counting analysis; details: in vivo, 1.5 h
[5] = system: Mus musculus; test: Biodistribution in remaining body parts of ddY mouse at 14.6 +/- 2.1 MBq, iv measured per gram of tissue at 14 mins by PET image analysis; details: in vivo
[6] = system: Liver; test: Biodistribution in liver of ddY mouse at 14.6 +/- 2.1 MBq, iv measured per gram of tissue at 27.5 mins by PET image analysis; details: in vivo
[7] = system: Mus musculus; test: Biodistribution in heart wall of ddY mouse at 5.6 +/- 2.1 MBq, iv measured per gram of tissue at 30 mins by gamma-ray counting analysis; details: in vivo, 0.5 h
[8] = system: Kidney; test: Biodistribution in kidney of ddY mouse at 5.6 +/- 2.1 MBq, iv measured per gram of tissue at 45 mins by gamma-ray counting analysis; details: in vivo, 0.75 h
[9] = system: Lung; test: Biodistribution in lung of ddY mouse at 5.6 +/- 2.1 MBq, iv measured per gram of tissue at 60 mins by gamma-ray counting analysis; details: in vivo, 1 h
[10] = system: Mus musculus; test: Biodistribution in heart wall of ddY mouse at 5.6 +/- 2.1 MBq, iv measured per gram of tissue at 45 mins by gamma-ray counting analysis; details: in vivo, 0.75 h
[11] = system: Lung; test: Biodistribution in lung of ddY mouse at 5.6 +/- 2.1 MBq, iv measured per gram of tissue at 15 mins by gamma-ray counting analysis; details: in vivo, 0.25 h
[12] = system: Mus musculus; test: Biodistribution in remaining body parts of ddY mouse at 5.6 +/- 2.1 MBq, iv measured per gram of tissue at 35 mins by gamma-ray counting analysis; details: in vivo
[13] = Drug uptake in urinary bladder of ddY mouse at 127 +/- 35 MBq/kg, iv measured up to 4.5 mins by microPET image analysis; details: in vivo, 0.075 h
[14] = system: Mus musculus; test: Biodistribution in urinary bladder/urine of ddY mouse at 5.6 +/- 2.1 MBq, iv measured per gram of tissue at 60 mins by gamma-ray counting analysis; details: in vivo, 1 h
[15] = system: Mus musculus; test: Biodistribution in large intestine wall of ddY mouse at 5.6 +/- 2.1 MBq, iv measured per gram of tissue at 90 mins by gamma-ray counting analysis; details: in vivo, 1.5 h
[16] = system: Liver; test: Biodistribution in liver of ddY mouse at 5.6 +/- 2.1 MBq, iv measured per gram of tissue at 60 mins by gamma-ray counting analysis; details: in vivo, 1 h
[17] = system: Spleen; test: Biodistribution in spleen of ddY mouse at 5.6 +/- 2.1 MBq, iv measured per gram of tissue at 15 mins by gamma-ray counting analysis; details: in vivo, 0.25 h
[18] = system: Kidney; test: Drug uptake in kidney of ddY mouse at 127 +/- 35 MBq/kg, iv measured up to 4.5 mins by microPET image analysis in presence of MATE1 inhibitor pyrimethamine; details: in vivo, 0.075 h
[19] = system: Mus musculus; test: Biodistribution in stomach wall of ddY mouse at 5.6 +/- 2.1 MBq, iv measured per gram of tissue at 15 mins by gamma-ray counting analysis; details: in vivo, 0.25 h
[20] = system: Liver; test: Biodistribution in liver of ddY mouse at 14.6 +/- 2.1 MBq, iv measured per gram of tissue at 5 mins by PET image analysis; details: in vivo
[21] = system: Mus musculus; test: Biodistribution in remaining body parts of ddY mouse at 14.6 +/- 2.1 MBq, iv measured per gram of tissue at 5 mins by PET image analysis; details: in vivo
[22] = system: Liver; test: Biodistribution in liver of ddY mouse at 5.6 +/- 2.1 MBq, iv measured per gram of tissue at 15 mins by gamma-ray counting analysis; details: in vivo, 0.25 h
[23] = system: Mus musculus; test: Biodistribution in heart wall of ddY mouse at 5.6 +/- 2.1 MBq, iv measured per gram of tissue at 15 mins by gamma-ray counting analysis; details: in vivo, 0.25 h
[24] = system: Thyroid gland; test: Biodistribution in thyroid of ddY mouse at 5.6 +/- 2.1 MBq, iv measured per gram of tissue at 90 mins by gamma-ray counting analysis; details: in vivo, 1.5 h
[25] = system: Mus musculus; test: Biodistribution in remaining body parts of ddY mouse at 5.6 +/- 2.1 MBq, iv measured per gram of tissue at 60 mins by gamma-ray counting analysis; details: in vivo, 1 h
[26] = system: Thyroid gland; test: Biodistribution in thyroid of ddY mouse at 5.6 +/- 2.1 MBq, iv measured per gram of tissue at 45 mins by gamma-ray counting analysis; details: in vivo, 0.75 h
[27] = system: Kidney; test: Biodistribution in kidney of ddY mouse at 5.6 +/- 2.1 MBq, iv measured per gram of tissue at 30 mins by gamma-ray counting analysis; details: in vivo, 0.5 h
[28] = system: Lung; test: Biodistribution in lung of ddY mouse at 5.6 +/- 2.1 MBq, iv measured per gram of tissue at 45 mins by gamma-ray counting analysis; details: in vivo, 0.75 h
[29] = system: Lung; test: Biodistribution in lung of ddY mouse at 5.6 +/- 2.1 MBq, iv measured per gram of tissue at 35 mins by gamma-ray counting analysis; details: in vivo
[30] = system: Mus musculus; test: Biodistribution in large intestine wall of ddY mouse at 5.6 +/- 2.1 MBq, iv measured per gram of tissue at 60 mins by gamma-ray counting analysis; details: in vivo, 1 h
[31] = system: Mus musculus; test: Biodistribution in urinary bladder/urine of ddY mouse at 5.6 +/- 2.1 MBq, iv measured per gram of tissue at 45 mins by gamma-ray counting analysis; details: in vivo, 0.75 h
[32] = system: Liver; test: Biodistribution in liver of ddY mouse at 5.6 +/- 2.1 MBq, iv measured per gram of tissue at 45 mins by gamma-ray counting analysis; details: in vivo, 0.75 h
[33] = system: Mus musculus; test: Biodistribution in heart wall of ddY mouse at 5.6 +/- 2.1 MBq, iv measured per gram of tissue at 90 mins by gamma-ray counting analysis; details: in vivo, 1.5 h
[34] = system: Liver; test: Biodistribution in liver of ddY mouse at 5.6 +/- 2.1 MBq, iv measured per gram of tissue at 30 mins by gamma-ray counting analysis; details: in vivo, 0.5 h
[35] = system: Blood; test: Metabolic stability in blood of mouse at 5 +/- 2.3 MBq/kg, iv measured until 30 to 60 mins by HPLC analysis in presence of MATE1 inhibitor pyrimethamine; details: in vivo
[36] = system: Mus musculus; test: Biodistribution in heart wall of ddY mouse at 5.6 +/- 2.1 MBq, iv measured per gram of tissue at 60 mins by gamma-ray counting analysis; details: in vivo, 1 h
[37] = system: Mus musculus; test: Biodistribution in urinary bladder/urine of ddY mouse at 5.6 +/- 2.1 MBq, iv measured per gram of tissue at 15 mins by gamma-ray counting analysis; details: in vivo, 0.25 h

Drug uptake [1]: 1.796 %ID
Drug uptake [2]: 0.087 %ID
Drug uptake [3]: 0.295 %ID
Drug uptake [4]: 1.604 %ID
Drug uptake [5]: 36.878 %ID
Drug uptake [6]: 1.033 %ID
Drug uptake [7]: 0.044 %ID
Drug uptake [8]: 0.165 %ID
Drug uptake [9]: 0.136 %ID
Drug uptake [10]: 0.029 %ID
Drug uptake [11]: 0.254 %ID
Drug uptake [12]: 20.55 %ID
Drug uptake [13]: Active
Drug uptake [14]: 69.767 %ID
Drug uptake [15]: 0.24 %ID
Drug uptake [16]: 1.631 %ID
Drug uptake [17]: 0.144 %ID
Drug uptake [18]: Active
Drug uptake [19]: 0.347 %ID
Drug uptake [20]: 4.327 %ID
Drug uptake [21]: 51.908 %ID
Drug uptake [22]: 3.817 %ID
Drug uptake [23]: 0.102 %ID
Drug uptake [24]: 0.013 %ID
Drug uptake [25]: 23.827 %ID
Drug uptake [26]: 0.002 %ID
Drug uptake [27]: 1.111 %ID
Drug uptake [28]: 0.135 %ID
Drug uptake [29]: 0.119 %ID
Drug uptake [30]: 0.395 %ID
Drug uptake [31]: 78.906 %ID
Drug uptake [32]: 0.827 %ID
Drug uptake [33]: 0.041 %ID
Drug uptake [34]: 2.319 %ID
Stability [35]: Stable
Drug uptake [36]: 0.038 %ID
Drug uptake [37]: 35.204 %ID
Structure (SMILES): CN([11CH3])C(=N)NC(=N)N
